“Also recorded” adds a separate entry of the source.
How the values were obtained:
[1] = Side effects of HD DHEA and their prevention by reconstitution; format: in vivo, dogs; conditions: for DHEA-induced ocular (ophthalmic) inflammation on reconstitution: dogs administered DHEA, IPA (and BH4) added; for susceptibility to infections under DHEA with concurrent reconstitution: dogs and cats; for susceptibility to infections under DHEA with concurrent reconstitution / fluid retention symptoms under DHEA with concurrent reconstitution: concurrent BH4, potassium nitrate and IPA; for fluid retention symptoms under DHEA with concurrent reconstitution: dogs
From the text: Table 1. Physical symptoms associated with HD DHEA-induced Nitric Oxide (NO) depletion.

[2] = Depletion and reconstitution of metabolites in dogs treated with HD DHEA; format: in vivo; conditions: for ubiquinone levels with supplementation in DHEA-treated animals: supplementation with ubiquinone and tocotrienols
Experimental: FIG. 4. […] For IPA quantitation, preliminary in vitro studies were performed in which DHEA-treated and control HT-29SF cells were exposed to [^3H]-mevalonic acid (saponified; data not shown). […] For ease of presentation, pretreatment values for all 3 determinations (BH4, IPA and ubiquinone) were given a value of 1, with treatment values presented as their respective fraction thereof. Male and female dogs had blood or other specimens drawn pretreatment, and then following 90 days of 10 mg/kg DHEA±reconstitution protocol.
FIG. 6. […] Fifteen ml blood samples were drawn and the buffy coat was isolated by low speed centrifugation in the standard manner. […] AMP, ADP and ATP were quantitated. […] For ease of presentation, pretreatment values are presented with a value of 1, with treatment values presented as their respective fraction thereof.
FIG. 8. […] Ten mg of intestinal mucosa was analyzed for each animal. […] Results are presented as percentage of values in pretreatment dogs, mean±SEM.
FIG. 10. […] 24 hour urine was collected from neutered male and female animals in amber glass containment vessels. To 100 ml of urine was added 1 ml of concentrated HCL as preservative. […] These same dogs were then administered DHEA (10 mg/kg)±the reconstitution regimen which included the monoamine mix described above. This treatment continued for 90 days, at which time further urine specimens were collected and assayed for norepinephrine. The data are reported as the mean±SEM.
FIG. 11. […] Before treatment, 10-15 ml blood samples were taken from male and female neutered dogs, and plasma was collected by low speed centrifugation by the standard method.

[3] = target: Glucose-6-phosphate dehydrogenase (G6PD) (Homo sapiens, UniProt P11413); conditions: cited from earlier work
[4] = test system: human colonic carcinoma HT29SF cells; assay: Flow cytometric cell cycle analysis of HT-29SF cells exposed to DHEA; format: cell-based
[5] = test system: 1,2-dimethylhydrazine-induced colonic tumors, which metastasize to the liver; assay: Carcinogen (1,2-dimethylhydrazine)-induced tumors in dogs ± HD DHEA (Table 2); format: in vivo
From the text: Table 2. Decreased tumor volume and increased longevity in dogs administered HD DHEA to treat […] tumors. […] Organotropic carcinogens produce tumors in specific organs. Dimethylhydrazine produces exclusively colonic tumors, which metastasize to the liver. In this series of experiments 13 dogs were exposed to DMH only, and 13 were exposed to DMH followed by treatment with HD DHEA.

spontaneous cancers = assay: HD DHEA in cancer stricken dogs (spontaneous cancers, Table 3); format: in vivo
From the text: In preliminary experiments we exposed human colonic carcinoma HT29SF cells to various doses of DHEA and assessed the effects of such treatment upon cell cycle kinetics.
Table 3. Decreased tumor volume, increased longevity (compared to historical controls), and improved quality of life in dogs with spontaneous cancers.

statin-treated cells = conditions: cited from earlier work
[6] = DMH followed by HD DHEA, Student's t test
[7] = tissues of animals administered HD DHEA
[8] = tissues of dogs administered HD DHEA

Sequence of Glucose-6-phosphate dehydrogenase (G6PD) (P11413 whole entry, species assumed): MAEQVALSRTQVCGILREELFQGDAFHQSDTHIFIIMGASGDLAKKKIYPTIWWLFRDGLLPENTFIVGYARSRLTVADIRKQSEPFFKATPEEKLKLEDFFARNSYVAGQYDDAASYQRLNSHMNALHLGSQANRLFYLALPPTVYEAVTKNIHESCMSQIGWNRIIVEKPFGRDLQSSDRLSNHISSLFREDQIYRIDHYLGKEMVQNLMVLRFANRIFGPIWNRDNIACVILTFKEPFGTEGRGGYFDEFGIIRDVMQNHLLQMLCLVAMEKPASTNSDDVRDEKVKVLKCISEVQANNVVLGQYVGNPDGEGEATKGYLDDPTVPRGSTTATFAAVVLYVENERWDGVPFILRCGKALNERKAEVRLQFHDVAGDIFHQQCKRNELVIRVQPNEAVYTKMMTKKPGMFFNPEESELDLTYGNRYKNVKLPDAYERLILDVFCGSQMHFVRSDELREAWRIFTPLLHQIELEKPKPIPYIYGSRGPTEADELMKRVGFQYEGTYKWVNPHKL

With `CC(O)C(O)C1CNc2nc(N)[nH]c(=O)c2N1` (stereo not shown) [BH4, tetrahydrobiotperin] the “DHEA-induced ocular (ophthalmic) inflammation on reconstitution” value [1] was “prevents”, the “susceptibility to infections under DHEA with concurrent reconstitution” value (shortened to “susceptibility to infections under DHEA”) [1] was “eliminated” and the “fluid retention symptoms under DHEA with concurrent reconstitution” value (shortened to “fluid retention symptoms under DHEA”) [1] was “eliminated”. For the same molecule, the “dopamine, norepinephrine and epinephrine levels on replenishment of BH4” value ([2]; DHEA-treated animals) was “restoring normal or near normal”.
In the case of `C[C@]12CC[C@H](O)CC1=CC[C@@H]1[C@@H]2CC[C@]2(C)C(=O)CC[C@@H]12` [DHEA, Dehydroepiandrosterone], the G6PD inhibition [3] is given as “potent uncompetitive inhibitor of G6PD”, the “effect on cell cycle kinetics” value ([4]; HT29SF cells exposed to various doses of DHEA) is given as “arrested cells in the G1 phase of the cell cycle” and the “number of tumors induced, control vs HD DHEA-treated dogs” value ([5]; 13 dogs DMH only vs 13 DMH followed by HD DHEA) is given as “not statistically different”. For the same molecule, the “number and total weight of hepatic metastases, control vs HD DHEA-treated dogs” value [5, 6] was “statistically significant”, the “weight of the individual colonic tumors, control vs HD DHEA-treated dogs” value [5, 6] was “statistically significant” and the longevity (spontaneous cancers; HD DHEA) was “significant improvements in longevity”. For the same molecule, the tumor volume (spontaneous cancers; HD DHEA) was “decreases in tumor volume”, the quality of life (spontaneous cancers; HD DHEA supplemented with specific metabolites) was “increases in quality of life” and the “side effects observed with HD DHEA” value ([1]; HD DHEA without reconstitution) was “motor incoordination sometimes occurs; also recorded: susceptibility to infections, particularly in the ear and eye; also recorded: induction of vasoconstriction; also recorded: Fluid retention; also recorded: auto-inflammatory-like disorder”. For the same molecule, the “NO level during HD DHEA” value ([2]; animals administered HD DHEA) was “depleted”, the “total pools of isopentenylated tRNA” value ([2]; buffy coat lymphocytes of dogs treated with DHEA, HPLC) was “depleted” and the “ubiquinone levels, continuous DHEA treatment” value ([2]; continuous treatment at doses capable of inducing HD DHEA) was “decline; also recorded: depleted”. For the same molecule, the “one carbon pool products (e.g., AMP, ADP, ATP; purines, pyrimidines, S-adenosylmethionine) during HD DHEA” value ([2]; dogs administered HD DHEA) was “profoundly depleted”, the “ubiquinone levels, short term DHEA exposure” value ([2]; over the short term) was “increased” and the “BH4 level during HD DHEA” value [2, 7] was “depleted”. For the same molecule, the “IPA level during HD DHEA” value [2, 7] was “becomes depleted”, the “important monoamines during HD DHEA” value [2, 8] was “depleted” and the “phenylalanine levels during HD DHEA” value [2, 8] was “increased”.
For `CC(C)=CCNc1ncnc2c1ncn2[C@@H]1O[C@H](CO)[C@@H](O)[C@H]1O` [IPA, N6-Δ2-isopentenyladenosine], the “DHEA-induced ocular (ophthalmic) inflammation on reconstitution” value [1] was “prevents; also recorded: completely prevent”, the “susceptibility to infections under DHEA” value [1] was “eliminated” and the “fluid retention symptoms under DHEA” value [1] was “eliminated”.
In the case of `CC(C)=CCNc1ncnc2nc[nH]c12` [Isopentenyladenine], the “activity in restoring DNA synthesis relative to mevalonate” value (statin-treated cells) is listed as “approximately 100 fold”.
With `N[C@@H](Cc1ccc(O)c(O)c1)C(=O)O` [L-DOPA] the emesis ([1]; dog, in vivo) was “can lead to emesis in some dogs”.
For `C[C@@](O)(CCO)CC(=O)O` [mevalonic acid], the “reversal of DHEA-induced cell cycle arrest” value ([4]; addition of mevalonic acid and nucleosides to DHEA-treated HT29SF cells) was “partly or completely reversed”.
For `O=[N+]([O-])[O-].[K+]` [potassium nitrate], the “symptoms associated with NO depletion” value ([1]; animals undergoing HD DHEA plus potassium nitrate) was “eliminating”, the “susceptibility to infections under DHEA” value [1] was “eliminated” and the “fluid retention symptoms under DHEA” value [1] was “eliminated”. The “replenishment of NO in animals undergoing HD DHEA” value ([2]; potassium nitrate as NO donor) was “can replenish NO”.
In the case of `C[C@]12C=CC(=O)C=C1CC[C@@H]1[C@@H]2C(=O)C[C@@]2(C)[C@H]1CC[C@]2(O)C(=O)CO` [prednisone], the G6PD inhibition [3] is given as “does not inhibit G6PD”.
In the case of `COC1=C(OC)C(=O)C(C/C=C(\C)CC/C=C(\C)CC/C=C(\C)CC/C=C(\C)CC/C=C(\C)CC/C=C(\C)CC/C=C(\C)CC/C=C(\C)CC/C=C(\C)CCC=C(C)C)=C(C)C1=O` [ubiquinone], the “combination of ubiquinone and tocotrienols vs ubiquinone alone, retaining ubiquinone levels” value ([2]; DHEA-treated animals) is reported as “more effective” and the “ubiquinone levels with supplementation in DHEA-treated animals” value [2] is reported as “maintains normal or near normal ubiquinone levels”.
With tocotrienols the “combination of ubiquinone and tocotrienols vs ubiquinone alone, retaining ubiquinone levels” value ([2]; DHEA-treated animals) was “more effective” and the “ubiquinone levels with supplementation in DHEA-treated animals” value [2] was “maintains normal or near normal ubiquinone levels”.
